Reference: the supplement of paper PMC10307832

Assays:
Test in all cases: relative viability (nuclei count vs DMSO), 5 days (fraction); higher = more cells survive
[1] = compound: CC1=CC=C(C=C1)C(=O)CN2C3=C(CCCC3)SC2=N [Pifithrin_alpha] + Cc1nc(Nc2ncc(C(=O)Nc3c(C)cccc3Cl)s2)cc(N2CCN(CCO)CC2)n1 [Dasatinib] (partner 0.075 µM)
Procedure, shortened: (§1)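 Relative viability divides the nuclei count in treated wells by that in vehicle wells. Lung cancer cell lines were seeded in 1536-well plates, dosed by pin tool the next day, and fixed and stained after 5 days in one step with final 0.05% Triton X-100, 1% formaldehyde and 1 ug/ml Hoechst. Dosing was a single drug or a fixed anchor-drug dose plus five library-drug doses (not always all listed) in √10 steps, and values are medians of duplicate plates imaged at 4×.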

Axitinib + Palbociclib = compound: CNC(=O)c1ccccc1Sc1ccc2c(/C=C/c3ccccn3)n[nH]c2c1 [Axitinib] + CC(=O)c1c(C)c2cnc(Nc3ccc(N4CCNCC4)cn3)nc2n(C2CCCC2)c1=O [Palbociclib] (partner 0.5 µM)
Procedure, shortened: as §1

Axitinib + Navitoclax = compound: CNC(=O)c1ccccc1Sc1ccc2c(/C=C/c3ccccn3)n[nH]c2c1 [Axitinib] + CC1(C)CCC(c2ccc(Cl)cc2)=C(CN2CCN(c3ccc(C(=O)NS(=O)(=O)c4ccc(N[C@H](CCN5CCOCC5)CSc5ccccc5)c(S(=O)(=O)C(F)(F)F)c4)cc3)CC2)C1 [Navitoclax] (partner 0.5 µM)
Procedure, shortened: as §1

Axitinib + Pemetrexed = compound: CNC(=O)c1ccccc1Sc1ccc2c(/C=C/c3ccccn3)n[nH]c2c1 [Axitinib] + Nc1nc2[nH]cc(CCc3ccc(C(=O)N[C@@H](CCC(=O)O)C(=O)O)cc3)c2c(=O)[nH]1 [Pemetrexed] (partner 0.2 µM)
Procedure, shortened: as §1

| Cell Line | relative viability ([1]; first compound 1 µM) | relative viability ([1]; first compound 3.162 µM) | relative viability ([1]; first compound 10 µM) | relative viability ([1]; first compound 31.62 µM) | relative viability ([1]; first compound 100 µM) | relative viability (Axitinib + Palbociclib; first compound 0.005 µM) | relative viability (Axitinib + Palbociclib; first compound 0.01581 µM) | relative viability (Axitinib + Palbociclib; first compound 0.05 µM) | relative viability (Axitinib + Palbociclib; first compound 0.1581 µM) | relative viability (Axitinib + Palbociclib; first compound 0.5 µM) | relative viability (Axitinib + Navitoclax; first compound 0.005 µM) | relative viability (Axitinib + Navitoclax; first compound 0.01581 µM) | relative viability (Axitinib + Navitoclax; first compound 0.05 µM) | relative viability (Axitinib + Navitoclax; first compound 0.1581 µM) | relative viability (Axitinib + Navitoclax; first compound 0.5 µM) | relative viability (Axitinib + Pemetrexed; first compound 0.005 µM) | relative viability (Axitinib + Pemetrexed; first compound 0.01581 µM) | relative viability (Axitinib + Pemetrexed; first compound 0.05 µM) | relative viability (Axitinib + Pemetrexed; first compound 0.1581 µM) | relative viability (Axitinib + Pemetrexed; first compound 0.5 µM) |
| --- | --- | --- | --- | --- | --- | --- | --- | --- | --- | --- | --- | --- | --- | --- | --- | --- | --- | --- | --- | --- |
| LXF-289 | 0.204 | 0.201 | 0.172 | 0.167 | 0.145 | 0.597 | 0.539 | 0.603 | 0.583 | 0.657 | 0.952 | 0.944 | 0.944 | 0.945 | 0.928 | 1.01 | 0.91 | 0.968 | 0.888 | 0.982 |
| NCI-H23 | 0.887 | 0.675 | 0.741 |  | 0.456 | 0.458 | 0.512 | 0.616 | 0.483 | 0.559 | 0.907 | 0.947 | 0.856 | 0.87 | 0.893 | 0.678 | 0.751 | 0.583 | 0.665 | 0.713 |
| NCI-H322M | 0.25 | 0.258 | 0.245 | 0.245 | 0.226 | 0.454 | 0.442 | 0.491 | 0.427 | 0.514 | 1.18 | 1.14 | 1.07 | 1.08 | 1.07 | 0.586 | 0.691 | 0.679 | 0.628 | 0.627 |
| NCI-H441 | 0.556 | 0.574 | 0.498 |  | 0.613 | 0.239 | 0.225 | 0.222 | 0.204 | 0.25 | 0.521 | 1 | 0.727 | 0.754 | 0.994 | 0.271 | 0.305 | 0.232 | 0.248 | 0.265 |
| NCI-H460 | 0.433 | 0.414 | 0.35 | 0.31 | 0.266 | 0.154 | 0.211 | 0.143 | 0.145 | 0.319 | 1.12 | 0.964 | 1.17 | 0.984 | 1.18 | 0.0553 | 0.0645 | 0.0676 | 0.0593 | 0.0611 |
| NCI-H520 | 0.299 | 0.204 | 0.18 | 0.243 | 0.263 | 0.242 | 0.19 | 0.205 | 0.194 | 0.187 | 0.987 | 1.26 | 1.1 | 0.794 | 1.11 | 0.68 | 0.698 | 0.74 | 0.681 | 0.716 |
| NCI-H647 | 0.218 | 0.17 | 0.141 | 0.153 | 0.153 | 0.554 | 0.375 | 0.475 | 0.395 | 0.421 | 1.21 | 1.12 | 1.03 | 1.2 | 1.28 | 0.21 | 0.149 | 0.2 | 0.184 | 0.209 |
| NCI-H838 | 0.259 | 0.28 | 0.245 | 0.234 | 0.229 | 0.246 | 0.229 | 0.233 | 0.226 | 0.23 | 1.2 | 1.18 | 1.21 | 1.15 | 1.3 | 0.243 | 0.25 | 0.247 | 0.237 | 0.25 |
| NCI-H1355 | 0.502 | 0.409 | 0.386 | 0.414 | 0.445 | 0.415 | 0.443 | 0.426 | 0.414 | 0.409 | 0.992 | 0.921 | 0.948 | 1.01 | 0.991 | 1.01 | 1.03 | 1.09 | 1.03 | 1.01 |
| NCI-H1395 | 0.407 | 0.419 | 0.371 | 0.399 | 0.386 | 0.594 | 0.509 | 0.507 | 0.579 | 0.711 | 1.14 | 1.21 | 1.02 | 1.01 | 1.57 | 0.962 | 0.761 | 0.832 | 0.683 | 0.736 |
| NCI-H1437 | 0.545 | 0.474 | 0.401 | 0.349 | 0.45 | 0.353 | 0.283 | 0.346 | 0.307 | 0.313 | 1.14 | 1.07 | 1.13 | 1.11 | 1.09 | 0.321 | 0.325 | 0.324 | 0.336 | 0.324 |
| NCI-H1650 |  | 0.242 | 0.246 | 0.25 | 0.212 | 0.423 | 0.322 | 0.412 | 0.313 | 0.486 | 1.27 | 0.981 | 1.35 | 1.24 | 1.41 | 0.415 | 0.352 | 0.361 | 0.436 | 0.408 |
| NCI-H1651 | 0.37 | 0.506 | 0.425 | 0.322 | 0.326 | 0.597 | 0.542 | 0.471 | 0.514 | 0.544 | 1.07 | 0.984 | 1.06 | 1.1 | 1.15 | 0.567 | 0.586 | 0.587 | 0.618 | 0.657 |
| NCI-H1666 | 0.808 | 0.81 | 0.682 | 0.588 | 0.542 | 0.689 | 0.606 | 0.653 | 0.631 | 0.657 | 0.975 | 0.91 | 1.01 | 0.914 | 1.18 | 0.865 | 0.972 | 0.899 | 0.958 | 0.873 |
| NCI-H1734 | 0.421 | 0.494 | 0.474 | 0.461 | 0.424 | 0.35 | 0.373 | 0.345 | 0.334 | 0.425 | 0.903 | 0.839 | 0.843 | 0.861 | 0.971 | 0.413 | 0.432 | 0.412 | 0.435 | 0.429 |
| NCI-H1755 | 0.39 | 0.622 | 0.391 | 0.362 | 0.401 | 0.472 | 0.423 | 0.462 | 0.512 | 0.42 | 1.04 | 0.92 | 0.99 | 0.964 | 1 | 0.438 | 0.448 | 0.403 | 0.509 | 0.403 |
| NCI-H1792 |  | 1.17 | 0.641 | 0.533 | 0.639 | 0.654 | 0.635 | 0.592 | 0.564 | 0.654 | 0.637 | 0.527 | 0.62 | 0.562 | 0.366 | 1.05 | 0.784 | 0.786 | 0.816 | 0.792 |
| NCI-H1793 |  | 0.466 | 0.4 | 0.403 | 0.393 | 0.285 | 0.259 | 0.369 | 0.285 | 0.346 | 0.438 | 0.386 | 0.424 | 0.514 | 0.504 | 1.04 | 0.568 | 1.01 | 0.821 | 0.791 |
| NCI-H1915 | 0.284 | 0.295 |  |  | 0.276 | 0.526 | 0.534 | 0.512 | 0.524 | 0.566 | 0.802 | 0.778 | 0.77 | 0.753 | 0.812 | 0.497 | 0.494 | 0.501 | 0.522 | 0.536 |
| NCI-H1944 | 0.217 | 0.214 | 0.217 | 0.173 | 0.196 | 0.365 | 0.342 | 0.328 | 0.318 | 0.307 | 1.07 | 0.995 | 1.01 | 1.02 | 1.06 | 0.6 | 0.583 | 0.707 | 0.657 | 0.652 |
| NCI-H1975 | 0.257 | 0.242 | 0.2 | 0.214 | 0.2 | 0.694 | 0.586 | 0.507 | 0.541 | 0.672 | 1.24 | 1.07 | 1.14 | 1.19 | 1.17 | 0.294 | 0.293 | 0.272 | 0.269 | 0.279 |
| NCI-H1993 | 0.531 | 0.532 | 0.581 | 0.559 | 0.608 | 0.604 | 0.68 | 0.678 | 0.583 | 0.677 | 1.13 | 0.937 | 1.07 | 1.03 | 1.1 | 0.606 | 0.601 | 0.604 | 0.628 | 0.541 |
| NCI-H2009 | 0.316 | 0.293 | 0.301 | 0.186 | 0.244 | 0.257 | 0.295 | 0.203 | 0.233 | 0.255 | 1.19 | 1.19 | 1.17 | 1.18 | 1.23 | 0.997 | 1.06 | 1 | 1.1 | 1.05 |
| NCI-H2023 | 0.432 | 0.324 | 0.348 |  | 0.275 | 0.393 | 0.447 | 0.363 | 0.34 | 0.412 | 1.05 | 1.01 | 0.874 | 0.94 | 1.01 | 0.237 | 0.232 | 0.177 | 0.252 | 0.291 |
| NCI-H2085 | 0.205 | 0.262 | 0.222 | 0.268 | 0.174 | 0.495 | 0.482 | 0.454 | 0.487 | 0.452 | 1.09 | 1.28 | 1.26 | 1.03 | 1.18 | 0.903 | 0.876 | 0.905 | 0.806 | 0.808 |
| NCI-H2087 | 0.982 | 0.869 | 0.83 |  | 0.862 | 0.251 | 0.202 | 0.294 | 0.265 | 0.255 | 1.24 | 1.1 | 1.04 | 0.899 | 1.07 | 0.766 | 0.593 | 0.597 | 0.7 | 0.728 |
| NCI-H2126 | 0.392 | 0.48 | 0.431 | 0.451 | 0.391 | 0.345 | 0.348 | 0.347 | 0.327 | 0.343 | 0.81 | 0.877 | 0.824 | 0.841 | 0.765 | 0.679 | 0.708 | 0.689 | 0.75 | 0.737 |
